Results reported in patent publication US20210309652A1, “ISOXAZOLINE COMPOUNDS FOR CONTROLLING INVERTEBRATE PESTS” (priority 2018, published 2021).

How the values were obtained:
Assay type in all cases: in vivo
[1] = tested on: potato leafhopper (Empoasca fabae (Harris)); test: Test C: control of potato leafhopper on Soleil bean plant, contact and/or systemic; details: 144 h
Method: (§1) Test Compounds were formulated using a solution containing 10% acetone, 90% water and 300 ppm Activator 90® non-ionic surfactant (Loveland Products, Loveland, Colo., USA). The formulated Compounds were applied in 1 mL of liquid through an atomizer nozzle positioned 1.27 cm (0.5 inches) above the top of each test unit. Test Compounds were sprayed at the rates indicated, and each test was replicated three times.
For evaluating control of potato leafhopper (Empoasca fabae (Harris)) through contact and/or systemic means, the test unit consisted of a small open container with a 5-6-day-old Soleil bean plant (primary leaves emerged) inside. White sand was added to the top of the soil, and one of the primary leaves was excised prior to application of the test Compound.
Test Compounds were formulated and sprayed at 250, 50 and 10 ppm. After spraying of the formulated test Compound, the test units were allowed to dry for 1 hour before they were post-infested with 5 potato leafhoppers (18-to-21-day-old adults). A black, screened cap was placed on the top of the test unit, and the test units were held for 6 days in a growth chamber at 20° C. and 70% relative humidity. Each test unit was then visually assessed for insect mortality.

[2] = tested on: beet army worm [Spodoptera exigua (Hübner)]; test: Test H: control of beet armyworm on treated soybean leaf pieces; details: 96 h
Method: (§2) For evaluating control of beet army worm [Spodoptera exigua (Hübner)], corn earworm [Helicoverpa zea (Boddie)], and cabbage looper [Trichoplusia ni (Hübner)], the test unit consisted of 4-inch diameter pots with 3-4 week old soybean (for S. exigua) or cotton (for H. zea and T. ni) plants inside. Plants were treated with test Compound sprayed to runoff using a hand-held spray nozzle. Test Compounds were formulated and sprayed at 5 rates. Treated plants dried for 1 hour. Leaves of treated plants were cut into pieces (approximately 4×3 cm), and pieces were placed in cells of plastic trays that each contained agar to maintain humidity. Each cell was infested with a single second-instar larva which represented a separate replicate. Each rate was represented by 16-24 larvae. Cells were sealed with lids. Trays were held for 4 days in a growth chamber with a 16:8-hour (Light:Dark) cycle at 25° C. and 70% relative humidity.
(§3) Treatments were evaluated by counting the number of live and dead larvae and by visually estimating the percentage of feeding on plant material using a 0-10 rating scale, corresponding to 10% increases from 0-100% feeding.

[3] = tested on: corn earworm [Helicoverpa zea (Boddie)]; test: Test H: control of corn earworm on treated cotton leaf pieces; details: 96 h
Method: as §2, §3

[4] = tested on: cabbage looper [Trichoplusia ni (Hübner)]; test: Test H: control of cabbage looper on treated cotton leaf pieces; details: 96 h
Method: as §2, §3

[5] = tested on: green peach aphid (Myzus persicae (Sulzer)); test: Test D: control of green peach aphid on radish plant, contact and/or systemic; details: 144 h
Method: as §1
For evaluating control of green peach aphid (Myzus persicae (Sulzer)) through contact and/or systemic means, the test unit consisted of a small open container with a 12-15-day-old radish plant inside. This was pre-infested by placing on a leaf of the test plant 30-40 aphids on a piece of leaf excised from a culture plant (cut-leaf method). The aphids moved onto the test plant as the leaf piece desiccated. After pre-infestation, the soil of the test unit was covered with a layer of sand.
Test Compounds were formulated and sprayed at 250 and 50 ppm. After spraying of the formulated test Compound, each test unit was allowed to dry for 1 hour and then a black, screened cap was placed on top. The test units were held for 6 days in a growth chamber at 19-21° C. and 50-70% relative humidity. Each test unit was then visually assessed for insect mortality.

[6] = tested on: cotton melon aphid (Aphis gossypii (Glover)); test: Test E: control of cotton melon aphid on okra plant, contact and/or systemic; details: 144 h
Method: as §1
For evaluating control of cotton melon aphid (Aphis gossypii (Glover)) through contact and/or systemic means, the test unit consisted of a small open container with a 5-day-old okra plant inside. This was pre-infested with 30-40 insects on a piece of leaf according to the cut-leaf method, and the soil of the test unit was covered with a layer of sand.
Test Compounds were formulated and sprayed at 250, 50 and 10 ppm. After spraying, the test units were maintained in a growth chamber for 6 days at 19° C. and 70% relative humidity. Each test unit was then visually assessed for insect mortality.

[7] = tested on: Western Flower Thrips (Frankliniella occidentalis (Pergande)); test: Test G: control of Western Flower Thrips on Soleil bean plant, contact and/or systemic; details: sprayed at 10 ppm; 6 days
Method: as §1
For evaluating control of the Western Flower Thrips (Frankliniella occidentalis (Pergande)) through contact and/or systemic means, the test unit consisted of a small open container with a 5-7-day-old Soleil bean plant inside.
Test Compounds were formulated and sprayed at 250, 50, 10 and 2 ppm. After spraying, the test units were allowed to dry for 1 hour, and then ˜60 thrips (adults and nymphs) were added to each unit. A black, screened cap was placed on top, and the test units were held for 6 days at 25° C. and 45-55% relative humidity. Each test unit was then visually assessed for plant damage and insect mortality.

| Structure (SMILES) | mortality at 10 ppm [1] | mortality at 1 ppm [2] | mortality at 10 ppm [2] | mortality at 1 ppm [3] | mortality at 10 ppm [3] | mortality at 10 ppm [5] | mortality at 10 ppm [6] | further results |
| --- | --- | --- | --- | --- | --- | --- | --- | --- |
| C[C@H](NC(=O)c1ccc(C2=NOC(c3cc(Cl)cc(Cl)c3)(C(F)(F)F)C2)c2sccc12)C(N)=O (stereo partly drawn) [Compound 101, N-[(1S)-2-amino-1-methyl-2-oxo-ethyl]-7-[5-(3,5-dichlorophenyl)-5-(trifluoromethyl)-4H-isoxazol-3-yl]benzothiophene-4-carboxamide] | ≥ 80% | ≥ 80% | ≥ 80% | ≥ 80% | ≥ 80% | – | – | mortality at 1 ppm [4]: ≥ 80%; mortality at 10 ppm [4]: ≥ 80% |
| O=C(NC1C[S+]([O-])C1)c1ccc(C2=NOC(c3cc(Cl)c(F)c(Cl)c3)(C(F)(F)F)C2)c2ccoc12 (single isomer, unassigned) [Compound 57, 4-(5-(3,5-dichloro-4-fluorophenyl)-5-(trifluoromethyl)-4,5-dihydroisoxazol-3-yl)-N-(1-oxidothietan-3-yl)benzofuran-7-carboxamide] | ≥ 80% | ≥ 80% | ≥ 80% | ≥ 80% | ≥ 80% | ≥ 80% | ≥ 80% | – |
| CC(=O)NCc1ccc(C2=NOC(c3cc(Cl)cc(Cl)c3)(C(F)(F)F)C2)c2ccoc12 (centres unmarked) [Compound 79, N-[[4-[5-(3,5-dichlorophenyl)-5-(trifluoromethyl)-4H-1,2-oxazol-3-yl]-1-benzofuran-7-yl]methyl]acetamide] | ≥ 80% | – | – | ≥ 80% | – | – | ≥ 80% | – |
| CSCCNC(=O)c1ccc(C2=NOC(c3cc(Cl)c(F)c(Cl)c3)(C(F)(F)F)C2)c2ccoc12 (centres unmarked) [Compound 1] | – | – | – | – | – | – | – | control efficacy: plant damage (30% or less plant damage and/or 100% mortality) [7]: ≤ 30% |
| CC(=O)NCc1ccc(C2=NOC(c3cc(Cl)c(F)c(Cl)c3)(C(F)(F)F)C2)c2ccoc12 (centres unmarked) [Compound 83, N-[[4-[5-(3,5-dichloro-4-fluorophenyl)-4,5-dihydro-5-(trifluoromethyl)-3-isoxazolyl]-7-benzofuranyl]methyl]acetamide] | ≥ 80% | ≥ 80% | – | ≥ 80% | – | ≥ 80% | ≥ 80% | – |
| O=C(NC1CS(=O)(=O)C1)c1ccc(C2=NOC(c3cc(Cl)c(F)c(Cl)c3)(C(F)(F)F)C2)c2ccoc12 (centres unmarked) [Compound 56, 4-[5-(3,5-dichloro-4-fluorophenyl)-4,5-dihydro-5-(trifluoromethyl)-3-isoxazolyl]-N-(1,1-dioxido-3-thietanyl)-7-benzofurancarboxamide] | ≥ 80% | ≥ 80% | ≥ 80% | ≥ 80% | ≥ 80% | – | – | – |
| O=C(NC1CSC1)c1ccc(C2=NOC(c3cc(Cl)c(F)c(Cl)c3)(C(F)(F)F)C2)c2ccoc12 (centres unmarked) [Compound 55, 4-(5-(3,5-dichloro-4-fluorophenyl)-5-(trifluoromethyl)-4,5-dihydroisoxazol-3-yl)-N-(thietan-3-yl)benzofuran-7-carboxamide] | ≥ 80% | – | – | – | – | ≥ 80% | ≥ 80% | – |
| O=C(NCc1ncccn1)c1ccc(C2=NOC(c3cc(Cl)c(F)c(Cl)c3)(C(F)(F)F)C2)c2ccsc12 (centres unmarked) [Compound 20, 4-[5-(3,5-dichloro-4-fluorophenyl)-4,5-dihydro-5-(trifluoromethyl)-3-isoxazolyl]-N-(2-pyrimidinylmethyl)benzo[b]thiophene-7-carboxamide] | ≥ 80% | – | – | – | – | – | – | mortality at 50 ppm [1]: ≥ 80%; mortality at 50 ppm [5]: ≥ 80%; mortality at 50 ppm [6]: ≥ 80% |
